# Results as given in patent publication US10238676B2, “Application of ginsenoside RG3 in preparing medicine for preventing and/or treating dementia, and medicine for treating dementia” (priority 2013, dated 2019).
# What was measured:
# [1] = tested on: patients with Alzheimer's disease; assay: Revised Hasegawa dementia scale (HDS-R) scoring of patients with Alzheimer's disease; assay type: in vivo, human
# Description: Both groups take medicine for 12 continuous weeks. 2 ml of cerebrospinal fluid is collected by lumbar puncture, and is stored at −80° C., the β-amyloid protein (Aβ) content is determined by using enzyme-linked immunosorbent assay (ELISA). A revised Hasegawa dementia scale (HDS-R) is used to score, and the scores before and after treatment are compared, increasing in scores means validness, and unchanging or decreasing in scores means invalidness. The enumeration data adopts χ^2 test, the comparison of measurement data adopts t-test, all data is processed by adopting SPSS12.0 statistical software.
# Analysis on the clinical therapeutic effect of the two groups.
# [2] = tested on: intracerebral cholinergic nerve system of rat model with Alzheimer's disease; assay: AChE positive nerve fiber density of cortex and hippocampal formation, rat model with Alzheimer's disease (D-galactose + IBO); assay type: in vivo, Wistar rats; conditions: AD model rats, Huperzine A 0.3 mg/kg/d, 6 weeks
# Description: 60 Wistar rats each of which having the body weight of 300-500 g are randomly divided into 6 groups, with 10 in each group, and the groups are named a preliminary elder normal control group, a preliminary elder AD model group, a positive medicine Huperzine A group, and high-dose, medium-dose and low-dose of Ginsenoside Rg3 topical preparation groups according to different treatment methods, respectively. The rats are bred in separate cages, each holding 4-5 rats, with natural lighting and random drinking and feeding provided. Physiological saline is injected in the abdominal cavity and grain of each rat in the preliminary elder normal control group; Galactose intraperitoneal injection and IBO intracerebral injection are given to all rats in the preliminary elder AD model group, the positive medicine Huperzine A group, and the high-dose, medium-dose and low-dose Ginsenoside Rg3 topical preparation groups; while the rats in the Huperzine A group and the high-dose, medium-dose and low-dose of Ginsenoside Rg3 topical preparation groups are subjected to D-galactose injection for modeling, rat of each group is given Huperzine A 0.3 mg/kg/d and Ginsenoside Rg3 10, 5, 2.5 mg/kg/d respectively. Ginsenoside Rg3 is applied to both sides of the nose of each rat of Ginsenoside Rg3 topical preparation groups. All the rats are subjected to the medicines continuously for 6 weeks and then intracerebral bilateral Meynert nuclei injection is carried out. Reference is made to a rat cerebral stereotaxic atlas for Meynert nuclei localization, and localization coordinates are AP-0.8 mm, Late 2.6 mm and DV 8.2 mm During intracerebral injection, a rat is anesthetized with 3% pentobarbital sodium (30 mg/kg) and then immobilized to a cerebral stereotaxic apparatus, physiological saline dissolved IBO (injection 1 μl for each side containing 5 μg of IBO) or 1 μl normal saline is injected slowly into a Meynert nucleus, each side takes injection for 5 minutes, and needle retaining for 10 minutes, wherein all the rats are subjected to cerebral perfusion with 4% paraformaldehyde after modeling and are then immobilized for 24 hours, and the brain is put in a sucrose phosphate buffer until brain tissue blocks sink, the blocks are frozen in a incubator and serially sectioned to […] in thickness. The sections are subjected to acetycholinesterase (AChE) histochemical staining by methods recommended by Hedreen, et al. Observation is given to the frontal lobe, the parietal lobe, the occipital lobe and the entorhinal cortex (layer II) as well as parts in a hippocampal CA1 region of the hippocampal formation such as a stratum oriens, a stratum radiatum, a stratum lacunosum-moleculare and a stratum moleculare of dentate gyrus for observing their AChE positive nerve fiber densities, and the AChE positive nerve fiber densities are counted with a number of intersections of positive fibers with a standard grid by using a micrometer used for a microscope.
# A significance level a is equal to 0.05.
# rat blood-brain barrier = conditions: rats drenched with borneolum syntheticum paraffin oil solution; cited from earlier work
# [3] = of 18 patients per group, 12 weeks
smiles,measurement,setting,value
"COc1cc2c(cc1OC)C(=O)C(CC1CCN(Cc3ccccc3)CC1)C2 (centres unmarked) [Donepezil, donepezil, reference compound]",effective rate (patients increased in HDS-R scores),"[1]; 18 AD patients per group, Rg3 oral liquid 10 mg/d or donepezil 5 mg/d, 12 weeks",72.2%
same,"Scores of clinical symptom (HDS-R), post treatment","[1]; AD inpatients, n = 18, Rg3 oral liquid 10 mg/d or donepezil 5 mg/d orally, 12 weeks",17.3 ± 9.6
same,"Scores of clinical symptom (HDS-R), before treatment","[1]; AD inpatients, n = 18 per group, baseline",13.5 ± 4.2^Δ
same,number of patients constant in scores,[1]; [3],3
same,number of patients decreased in scores,[1]; [3],2
same,number of patients increased in scores of clinical symptom,[1]; [3],13
"C/C=C1\[C@H]2C=C(C)C[C@]1(N)c1ccc(=O)[nH]c1C2 [Huperzine, Huperzine A, reference compound]",N Entorhinal cortex AchE positive nerve fiber density,[2],132.4 ± 19.2^# 10^2 · mm^−2
same,N Frontal lobe AchE positive nerve fiber density,[2],122.1 ± 16.1^## 10^2 · mm^−2
same,N Occipital lobe AchE positive nerve fiber density,[2],131.6 ± 9.0^Δ 10^2 · mm^−2
same,Parietal lobe AchE positive nerve fiber density,[2],108.7 ± 15.8^##Δ 10^2 · mm^−2
same,N Stratum lacunosum-moleculare AchE positive nerve fiber density,[2]; hippocampal formation,83.3 ± 9.6 10^2 · mm^−2
same,N Stratum moleculare of dentate gyrus AchE positive nerve fiber density,[2]; hippocampal formation,120.0 ± 10.7^# 10^2 · mm^−2
same,N Stratum oriens AchE positive nerve fiber density,[2]; hippocampal formation,138.7 ± 20.1 10^2 · mm^−2
same,N Stratum radiatum AchE positive nerve fiber density,[2]; hippocampal formation,121.1 ± 15.2 10^2 · mm^−2
CC1(C)C2CCC1(C)C(O)C2 (centres unmarked) [borneolum syntheticum],time after drench at which tight junction changes start,rat blood-brain barrier,4 h
same,time at which tight junction changes reach peak,rat blood-brain barrier,8 h
same,time at which tight junction returns to normal,rat blood-brain barrier,48 h
